The target of one data set is T1, COX-1 (Ovis aries, UniProt P05979).
T1 construct: purchased
T1 sequence (P05979 25-600): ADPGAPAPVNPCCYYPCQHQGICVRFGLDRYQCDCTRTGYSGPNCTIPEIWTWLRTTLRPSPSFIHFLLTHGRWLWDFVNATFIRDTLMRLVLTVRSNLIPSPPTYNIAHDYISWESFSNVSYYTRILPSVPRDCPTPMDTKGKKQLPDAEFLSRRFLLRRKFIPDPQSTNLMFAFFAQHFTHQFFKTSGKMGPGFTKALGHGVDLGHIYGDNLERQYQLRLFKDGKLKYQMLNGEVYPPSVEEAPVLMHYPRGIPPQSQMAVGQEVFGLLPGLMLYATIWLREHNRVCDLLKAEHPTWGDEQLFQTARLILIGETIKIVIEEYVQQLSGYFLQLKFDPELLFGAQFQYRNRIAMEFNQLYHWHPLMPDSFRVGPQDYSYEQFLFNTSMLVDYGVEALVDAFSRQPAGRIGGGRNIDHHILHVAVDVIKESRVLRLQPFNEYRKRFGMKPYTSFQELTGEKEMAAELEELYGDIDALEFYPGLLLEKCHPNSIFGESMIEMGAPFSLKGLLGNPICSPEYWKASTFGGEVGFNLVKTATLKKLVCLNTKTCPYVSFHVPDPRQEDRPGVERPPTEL
Put plainly: COX inhibitor screening assay, COX-1. Type of data set: biochemical. The procedure:
The inhibitory effects of the drugs MMF and MPA on COX-1 and COX-2 were measured using the COX inhibitor screening assay kit and LOX inhibitor screening kit. […] Briefly, the reaction buffer (Tris–HCl buffer, pH 8.0) containing 5 mM EDTA, 2 mM phenol, and 1 µM hematin was measured into test tubes. The test drugs were dissolved in dimethyl sulfoxide and added to the tubes to final concentrations of […]. COX-1 or COX-2 was added to the test tubes and preincubated for 10 min at 37 °C. Arachidonic acid was then added, and the tubes were incubated for 2 min at 37 °C. The enzyme immunoassay was used to measure the concentration of the product prostaglandin F2α (PGF2α). The estimated values were determined after comparison to the predetermined standard curve. The IC50 was determined after three different experiments. The selectivity index was calculated from Eq. (1):
(1) Selectivity index=IC50COX−1/IC50COX−2

The subject of the next data set is 12-LOX. Put plainly: LOX inhibitor screening kit. Type of data set: biochemical. On the procedure: The inhibitory effects of the drugs MMF and MPA on COX-1 and COX-2 were measured using the COX inhibitor screening assay kit and LOX inhibitor screening kit. The assay was performed according to the manufacturer’s directions and previously described methods ([Chowdhury et al., 2008]; [Lee et al., 2004]). Briefly, the reaction buffer (Tris–HCl buffer, pH 8.0) containing 5 mM EDTA, 2 mM phenol, and 1 µM hematin was measured into test tubes. The test drugs were dissolved in dimethyl sulfoxide and added to the tubes to final concentrations of […]. COX-1 or COX-2 was added to the test tubes and preincubated for 10 min at 37 °C. Arachidonic acid was then added, and the tubes were incubated for 2 min at 37 °C. The enzyme immunoassay was used to measure the concentration of the product prostaglandin F2α (PGF2α). The estimated values were determined after comparison to the predetermined standard curve. The IC50 was determined after three different experiments. The selectivity index was calculated from Eq. (1): […]

The subject of data set [1] is atopic dermatitis and vitiligo. The conditions noted are these: cited from earlier work.
For data set [2] the following is noted: cited from earlier work.

pIC50: −log10 of the molar value. Like-named read-outs stand apart in the source and are kept apart here.

Consider `COc1c(C)c2c(c(O)c1C/C=C(\C)CCC(=O)OCCN1CCOCC1)C(=O)OC2` [Mycophenolate mofetil], for which the negative-log IC50 (pIC50) is 5.26 against COX-1; 5.35 in the data set on 12-LOX (printed as 5-LOX in abstract and b38, read-out: IC50 5-LOX); 5.35 with 12-LOX (read-out: IC50 12-LOX). Also, the “Treatment of atopic dermatitis” value in data set [1] (oral 1–2 g daily for 12 weeks, ref Grundmann-Kollmann et al., 2001, Neuber et al., 2000) is “highly effective”. Moreover, in data set [1] (topical 15% MMF, ref Handjani et al., 2017), the “Tolerability of high topical concentration” value was “well tolerated”. Further, the Treatment of vitiligo result in data set [1] (topical application of 15% MMF, ref Handjani et al., 2017) is listed as “highly effective”. Also, the “Maximal serum concentration (Cmax)” value in data set [2] (after 1–2 g oral doses, ref Ferreira et al., 2020) was 18000 to 20000 ng/mL. In addition, the “Conversion to MPA by liver carboxylesterases 1 and 2” value in data set [2] (after oral intake, ref Lamba et al., 2014) is listed as “completely converted to MPA”.

The record behind these values is article PMC8092108, “Mycophenolate suppresses inflammation by inhibiting prostaglandin synthases: a study of molecular and experimental drug repurposing” (PeerJ, 2021).
